Patent US10111428B2, “Nematocide containing lactonic ring and preparation method and application thereof” (priority 2015, dated 2018)
Values after ≈ are worked out from the molar mass of the structure shown.

Columns and labels:
Nematode eggs = assay: Plant pathogenic nematode inhibition test by dipping: nematode egg hatch inhibition (NY/T 1154.5-2006); type: in vivo; details: in vivo
Procedure: A plant pathogenic nematode inhibition test is conducted by dipping with the compounds in Table 1; and by referring to NY/T 1154.5-2006 (Part 5: Dipping Test for Insecticide Ovicidal Activity), the nematode egg hatch inhibition activity of the compounds is tested, as shown in Table 2: […]

Earthworm = Earthworm toxicity test (Test Guidelines on Environmental Safety Assessment for Chemical Pesticides); type: in vivo; details: cell adds 'low toxicity'
Procedure: (§1) According to the earthworm and edaphon toxicity test procedures as prescribed in the Test Guidelines on Environmental Safety Assessment for Chemical Pesticides, earthworm and edaphon toxicity tests are conducted on compounds 1 to 60 from Table 1. The simulative usual dose of pesticide in the edaphon test is 40 ppm.

Nematode J2 = assay: Plant pathogenic nematode inhibition test by dipping: second-stage juveniles; type: in vivo; details: in vivo
Edaphon = Edaphon toxicity test (Test Guidelines on Environmental Safety Assessment for Chemical Pesticides); details: 15 d; 100 times of usual dose (simulative usual dose 40 ppm); cell adds 'low toxicity'
Procedure: as §1

Row | SMILES | LC50 (Nematode eggs) [µg/mL] | Earthworm Toxicity LC50 (14 d) (Earthworm) | LC50 (Nematode J2) [µg/mL] | Edaphon Toxicity (15 d) (Inhibition ratio when added amount is 100 times of usual dose) (Edaphon)
1 | COc1cccc(C2OC(=O)CC2C(=O)OCCC(F)=C(F)F)c1 (stereo not shown) [Compound 37] | 12.84 (≈ 37.3 µM) | >10, low toxicity mg/L | 13.67 (≈ 39.7 µM) | <50%, low toxicity
2 | COc1ccc(C2OC(=O)CC2C(=O)OCCC=C(F)F)cc1 (stereo not shown) [Compound 38] | 12.14 (≈ 37.2 µM) | >10, low toxicity mg/L | 13.40 (≈ 41.1 µM) | <50%, low toxicity
3 | COc1ccc(C2OC(=O)CC2C(=O)OCCC(F)=C(F)F)cc1 (stereo not shown) [Compound 39] | 11.85 (≈ 34.4 µM) | >10, low toxicity mg/L | 13.40 (≈ 38.9 µM) | <50%, low toxicity
4 | O=C1CC(C(=O)OCCC=C(F)F)C(c2ccccc2OC(F)(F)F)O1 (stereo not shown) [Compound 40] | 10.04 (≈ 26.4 µM) | >10, low toxicity mg/L | 13.40 (≈ 35.2 µM) | <50%, low toxicity
5 | O=C1CC(C(=O)OCCC(F)=C(F)F)C(c2ccccc2OC(F)(F)F)O1 (stereo not shown) [Compound 41] | 11.41 (≈ 28.6 µM) | >10, low toxicity mg/L | 13.86 (≈ 34.8 µM) | <50%, low toxicity
6 | COc1ccc(C2OC(=O)CC2C(=O)OCCC(F)=C(F)F)c(C(F)(F)F)c1 (stereo not shown) [Compound 42] | 12.39 (≈ 30.1 µM) | >10, low toxicity mg/L | 10.40 (≈ 25.2 µM) | <50%, low toxicity
7 | CCOc1ccccc1C1OC(=O)CC1C(=O)OCCC(F)=C(F)F (stereo not shown) [Compound 43] | 11.98 (≈ 33.4 µM) | >10, low toxicity mg/L | 13.35 (≈ 37.3 µM) | <50%, low toxicity
8 | CCOc1ccc(C2OC(=O)CC2C(=O)OCCC(F)=C(F)F)cc1 (stereo not shown) [Compound 44] | 10.23 (≈ 28.6 µM) | >10, low toxicity mg/L | 13.12 (≈ 36.6 µM) | <50%, low toxicity
9 | O=C1CC(C(=O)OCCC=C(F)F)C(c2ccccc2C(F)(F)F)O1 (stereo not shown) [Compound 45] | 10.14 (≈ 27.8 µM) | >10, low toxicity mg/L | 12.35 (≈ 33.9 µM) | <50%, low toxicity
10 | O=C1CC(C(=O)OCCC(F)=C(F)F)C(c2ccccc2C(F)(F)F)O1 (stereo not shown) [Compound 46] | 9.98 (≈ 26.1 µM) | >10, low toxicity mg/L | 11.24 (≈ 29.4 µM) | <50%, low toxicity
11 | O=C1CC(C(=O)OCCC=C(F)F)C(c2cc(C(F)(F)F)cc(C(F)(F)F)c2)O1 (stereo not shown) [Compound 47] | 11.41 (≈ 26.4 µM) | >10, low toxicity mg/L | 12.24 (≈ 28.3 µM) | <50%, low toxicity
12 | O=C1CC(C(=O)OCCC(F)=C(F)F)C(c2cc(C(F)(F)F)cc(C(F)(F)F)c2)O1 (stereo not shown) [Compound 48] | 12.25 (≈ 27.2 µM) | >10, low toxicity mg/L | 13.27 (≈ 29.5 µM) | <50%, low toxicity
13 | N#Cc1ccc(C2OC(=O)CC2C(=O)OCCC(F)=C(F)F)cc1 (stereo not shown) [Compound 49] | 10.36 (≈ 30.5 µM) | >10, low toxicity mg/L | 11.35 (≈ 33.5 µM) | <50%, low toxicity
14 | O=C1CC(C(=O)OCCC(F)=C(F)F)C(c2cccc(Oc3cccc(C(F)(F)F)c3)c2)O1 (stereo not shown) [Compound 52] | 10.12 (≈ 21.3 µM) | >10, low toxicity mg/L | 13.28 (≈ 28 µM) | <50%, low toxicity
15 | Cc1ccc(Oc2ccccc2C2OC(=O)CC2C(=O)OCCC(F)=C(F)F)cc1 (stereo not shown) [Compound 53] | 8.98 (≈ 21.4 µM) | >10, low toxicity mg/L | 12.35 (≈ 29.4 µM) | <50%, low toxicity
16 | O=C1CC(C(=O)OCCC(F)=C(F)F)C(c2ccc(Oc3ccc(Cl)cc3)cc2)O1 (stereo not shown) [Compound 54] | 12.40 (≈ 28.1 µM) | >10, low toxicity mg/L | 14.16 (≈ 32.1 µM) | <50%, low toxicity
17 | O=C1CC(C(=O)OCCC(F)=C(F)F)C(c2ccc(Oc3ccc(F)cc3)cc2)O1 (stereo not shown) [Compound 55] | 13.24 (≈ 31.2 µM) | >10, low toxicity mg/L | 15.36 (≈ 36.2 µM) | <50%, low toxicity
18 | O=C1CC(C(=O)OCCC(F)=C(F)F)C(c2ccc(OCc3ccc(F)cc3)cc2)O1 (stereo not shown) [Compound 56] | 11.56 (≈ 26.4 µM) | >10, low toxicity mg/L | 13.47 (≈ 30.7 µM) | <50%, low toxicity
19 | O=C1CC(C(=O)OCCC(F)=C(F)F)C(c2cccc([N+](=O)[O-])c2)O1 (stereo not shown) [Compound 57] | 12.12 (≈ 33.7 µM) | >10, low toxicity mg/L | 14.23 (≈ 39.6 µM) | <50%, low toxicity
20 | O=C1CC(C(=O)OCCC(F)=C(F)F)C(c2ccc([N+](=O)[O-])cc2)O1 (stereo not shown) [Compound 58] | 10.07 (≈ 28 µM) | >10, low toxicity mg/L | 12.18 (≈ 33.9 µM) | <50%, low toxicity
21 | Nc1ccccc1C1OC(=O)CC1C(=O)OCCC(F)=C(F)F (stereo not shown) [Compound 59] | 11.24 (≈ 34.1 µM) | >10, low toxicity mg/L | 13.24 (≈ 40.2 µM) | <50%, low toxicity
22 | Nc1ccc(C2OC(=O)CC2C(=O)OCCC(F)=C(F)F)cc1 (stereo not shown) [Compound 60] | 8.40 (≈ 25.5 µM) | >10, low toxicity mg/L | 10.06 (≈ 30.6 µM) | <50%, low toxicity
